Where a chain is given by its changes, count along the chain named.
Assays:
Format in all cases: cell-based
[1] = target: T1, α-Gal A mutant form N228D (Homo sapiens, UniProt P06280, N228D); test: α-Gal A activity in lysates of transfected HEK-293 cells, N228D
T1 construct: expressed in transfected cells; host or cells: HEK-293
T1 sequence (P06280 32-429 N228D): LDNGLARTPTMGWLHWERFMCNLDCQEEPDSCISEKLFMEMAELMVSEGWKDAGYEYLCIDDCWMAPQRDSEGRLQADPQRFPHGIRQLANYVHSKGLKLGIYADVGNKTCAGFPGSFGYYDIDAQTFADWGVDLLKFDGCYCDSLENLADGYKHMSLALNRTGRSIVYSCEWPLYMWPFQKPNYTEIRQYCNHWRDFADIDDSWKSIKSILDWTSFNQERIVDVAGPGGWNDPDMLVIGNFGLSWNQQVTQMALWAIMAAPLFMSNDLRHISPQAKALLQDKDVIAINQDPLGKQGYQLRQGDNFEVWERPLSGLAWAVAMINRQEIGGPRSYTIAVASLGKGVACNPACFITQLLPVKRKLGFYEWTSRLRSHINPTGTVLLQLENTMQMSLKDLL
Description: (§1) Baseline and 10 μM migalastat α-Gal A activity: Differences in the α-Gal A activity between lysates incubated in the absence and presence of 10 μM migalastat were determined using a one-tailed, Mann Whitney U test; an increase at 10 μM migalastat with a p<0.05 was considered significant.
(§2) 10 μM migalastat α-Gal A activity (% WT)=(α-Gal A activity in mutant transfected cell lysates incubated with 10 μM migalastat÷α-Gal A activity in wild-type transfected cell lysates without migalastat)*100.
(§3) Absolute increase (% WT)=is the 10 μM migalastat α-Gal A activity (% WT) minus the baseline α-Gal A activity (% WT).
(§4) Relative increase is the 10 μM migalastat α-Gal A activity in mutant transfected cell lysates÷baseline α-Gal A activity in mutant transfected cell lysates incubated without migalastat.

[2] = target: T2, α-Gal A mutant form W204L (Homo sapiens, UniProt P06280, W204L); test: α-Gal A activity in lysates of transfected HEK-293 cells, W204L
T2 construct: expressed in transfected cells; host or cells: HEK-293
T2 sequence (P06280 32-429 W204L): T1 sequence (P06280 32-429 N228D) with W173L, D197N
Description: as §1, §2, §3, §4

[3] = target: T3, α-Gal A mutant form V339A (Homo sapiens, UniProt P06280, V339A); test: α-Gal A activity in lysates of transfected HEK-293 cells, V339A
T3 construct: expressed in transfected cells; host or cells: HEK-293
T3 sequence (P06280 32-429 V339A): T1 sequence (P06280 32-429 N228D) with D197N, V308A
Description: as §1, §2, §3, §4

[4] = target: T4, α-Gal A mutant form T194A (Homo sapiens, UniProt P06280, T194A); test: α-Gal A activity in lysates of transfected HEK-293 cells, T194A
T4 construct: expressed in transfected cells; host or cells: HEK-293
T4 sequence (P06280 32-429 T194A): T1 sequence (P06280 32-429 N228D) with T163A, D197N
Description: as §1, §2, §3, §4

[5] = target: T5, α-Gal A mutant form P380L (Homo sapiens, UniProt P06280, P380L); test: α-Gal A activity in lysates of transfected HEK-293 cells, P380L
T5 construct: expressed in transfected cells; host or cells: HEK-293
T5 sequence (P06280 32-429 P380L): T1 sequence (P06280 32-429 N228D) with D197N, P349L
Description: as §1, §2, §3, §4

[6] = 10 μM migalastat minus baseline
[7] = 10 μM migalastat ÷ baseline activity
[8] = HEK-293 lysates, 10 μM migalastat, 5 days, mean ± SEM

## OC[C@H]1NC[C@H](O)[C@@H](O)[C@H]1O [migalastat, (2R,3S,4R,5S)-2-(hydroxymethyl) piperdine-3,4,5-triol]
[1]; [6]
  Absolute increase (% WT): 48.2 % WT
[1]; [7]
  Relative increase: 4.12
[1]; [8]
  10 μM migalastat α-Gal A activity: 25816 ± 2273 nmol/mg/h
  10 μM migalastat α-Gal A activity (% WT): 63.2 ± 5.4 % WT
[2]; [6]
  Absolute increase (% WT): 47.4 % WT
[2]; [7]
  Relative increase: 2.02
[2]; [8]
  10 μM migalastat α-Gal A activity: 32649 ± 3037 nmol/mg/h
  10 μM migalastat α-Gal A activity (% WT): 84.3 ± 5.9 % WT
[3]; [6]
  Absolute increase (% WT): 16.8 % WT
[3]; [7]
  Relative increase: 1.33
[3]; [8]
  10 μM migalastat α-Gal A activity: 25174 ± 2895 nmol/mg/h
  10 μM migalastat α-Gal A activity (% WT): 65.6 ± 4.2 % WT
[4]; [6]
  Absolute increase (% WT): 19.7 % WT
[4]; [7]
  Relative increase: 2.75
[4]; HEK-293 lysates, 10 nM migalastat as printed, 5 days, mean ± SEM
  10 nM migalastat α-Gal A activity: 10315 ± 459 nmol/mg/h
[4]; [8]
  10 μM migalastat α-Gal A activity (% WT): 30.5 ± 2.0 % WT
[5]; [6]
  Absolute increase (% WT): 7.1 % WT
[5]; [7]
  Relative increase: 2.98
[5]; [8]
  10 μM migalastat α-Gal A activity: 4248 ± 369 nmol/mg/h
  10 μM migalastat α-Gal A activity (% WT): 10.6 ± 1.0 % WT

— patent US12594268B2, “Methods of treating Fabry disease in patients having a mutation in the GLA gene” (Amicus Therapeutics, Inc., priority 2018, dated 2026)
